Source: patent US20080171716A1, “NUCLEIC ACID MODULATION OF TOLL-LIKE RECEPTOR-MEDIATED IMMUNE STIMULATION” (Protiva Biotherapeutics, Inc., priority 2006, published 2008)

How the values were obtained:
TLR7 [1] = biological target: T1, TLR7 (Mus musculus, UniProt P58681); experiment: In vivo inhibition of loxoribine-mediated cytokine induction in mice; set-up: from tissue; host or cells: whole animal: female Balb/C mice, plasma cytokines; species or system Balb/C mice
T1 sequence (P58681 27-1050): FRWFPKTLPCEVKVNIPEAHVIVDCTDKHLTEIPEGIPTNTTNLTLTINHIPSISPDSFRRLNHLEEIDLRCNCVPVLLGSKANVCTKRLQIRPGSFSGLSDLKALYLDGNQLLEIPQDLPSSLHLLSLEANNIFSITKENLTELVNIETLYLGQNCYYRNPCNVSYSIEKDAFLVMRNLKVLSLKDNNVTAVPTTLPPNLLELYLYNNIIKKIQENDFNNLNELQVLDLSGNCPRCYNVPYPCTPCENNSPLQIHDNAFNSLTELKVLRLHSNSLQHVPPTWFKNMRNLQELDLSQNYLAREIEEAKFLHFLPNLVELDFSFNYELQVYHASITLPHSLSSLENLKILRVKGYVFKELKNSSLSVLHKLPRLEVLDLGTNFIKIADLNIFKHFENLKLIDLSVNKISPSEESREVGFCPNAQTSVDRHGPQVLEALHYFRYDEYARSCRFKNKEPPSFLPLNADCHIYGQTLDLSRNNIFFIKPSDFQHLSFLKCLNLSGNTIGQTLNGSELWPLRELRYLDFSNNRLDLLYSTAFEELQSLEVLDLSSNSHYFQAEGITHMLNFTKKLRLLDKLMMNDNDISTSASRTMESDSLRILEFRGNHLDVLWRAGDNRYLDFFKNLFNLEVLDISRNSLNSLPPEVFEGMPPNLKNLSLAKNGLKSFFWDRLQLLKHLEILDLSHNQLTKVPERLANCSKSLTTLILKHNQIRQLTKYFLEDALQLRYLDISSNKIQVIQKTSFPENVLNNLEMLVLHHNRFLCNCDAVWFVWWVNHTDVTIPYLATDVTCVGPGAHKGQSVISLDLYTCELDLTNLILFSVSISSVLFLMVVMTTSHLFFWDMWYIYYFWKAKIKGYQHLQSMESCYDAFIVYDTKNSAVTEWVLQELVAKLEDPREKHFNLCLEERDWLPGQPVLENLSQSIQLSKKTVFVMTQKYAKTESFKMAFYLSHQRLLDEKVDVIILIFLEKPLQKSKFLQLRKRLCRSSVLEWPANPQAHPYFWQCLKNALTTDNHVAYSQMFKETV
Procedure: Cytokine ELISA. All cytokines were quantified using sandwich ELISA kits according to the manufacturer's instructions. These were mouse and human IFN-α (PBL Biomedical; Piscataway, N.J.) and IL-6 (eBioscience; San Diego, Calif.).
In Vivo Cytokine Induction. Animal studies were performed at Protiva Biotherapeutics in accordance with Canadian Council on Animal Care guidelines and following protocol approval by the local Animal Care and Use Committee. Female Balb/C mice were subjected to a two-week quarantine and acclimation period prior to use at six to eight-weeks of age. RNA formulations were administered by standard injection in the lateral tail vein in 0.2 ml PBS. Six hours after injection, blood was collected by cardiac puncture and processed as plasma for cytokine analysis. In experiments studying inhibition of cytokine induction by loxoribine, formulated RNA (100 μg) was administered IV 2 h prior to IV administration of 1 mg loxoribine in PBS. Blood was collected by cardiac puncture 2 h after administration of loxoribine and processed as plasma for cytokine analysis.

TLR7 [2] = biological target: T1, TLR7; experiment: Loxoribine-induced IFN-α/IL-6 production in murine Flt3L-derived dendritic cells; assay type: cell-based; set-up: Femurs and tibiae of female Balb/C mice were isolated; endogenous in cells; host or cells: Flt3L-derived dendritic cells cultured from bone marrow of female Balb/C mice; settings: murine Flt3L DC; 30 μM Lox; 0.2 μM RNA; 24 h
Procedure: Lipid Encapsulation of RNA and ODN. RNA or ODN were encapsulated in liposomes by a process of spontaneous vesicle formation as described in Judge et al., supra, and Jeffs et al., Pharm. Res., 22:362-372 (2005).
Flt3L-derived dendritic cells (DC) were generated as described in Gilliet et al., J. Exp. Med., 195:953-958 (2002), using 100 ng/ml murine Flt3-ligand (Peprotech) supplemented media. Femurs and tibiae of female Balb/C mice were isolated and rinsed in sterile PBS. The ends of bones were cut and marrow harvested in complete media (RPMI 1640, 10% heat inactivated FBS, 1% penicillin/streptomycin, 2 mM L-glutamine, 1 mM sodium pyruvate, 25 mM HEPES, 50 μM 2-mercaptoethanol). Bone marrow cells were passed through a 70 μm strainer and centrifuged at 1000 rpm for 7 min. and resuspended in complete media supplemented with 100 ng/ml murine Flt3L to 2×10^6 cells/ml. 2 ml of cells were seeded in 6-well plates and 1 ml fresh media was added every two to three days. On day 9 of culture, non-adherent cells were washed in complete media and plated into 96-well plates at concentrations ranging from 0.5 to 2.5×10^5 cells/well. […]
Cytokine ELISA. All cytokines were quantified using sandwich ELISA kits according to the manufacturer's instructions. […]

[3] = 100 μg formulated RNA IV 2 h prior to 1 mg Lox IV, plasma 2 h after Lox

polyUmod21: 2′OMe-uridine homopolymer of 21 nucleotides in length (UUUUUUUUUUUUUUUUUUUUU; all 2'-O-methyl, backbone not given here)
reduction of plasma IFN-α compared to PBS pre-treatment (TLR7 [1]; [3]): 79%+/−5%
reduction of plasma IFN-α compared to mice treated with GFP-S ssRNA (TLR7 [1]; [3]): 92%+/−2%
reduction of plasma IL-6 compared to PBS pre-treatment (TLR7 [1]; [3]): 72%+/−8%
reduction of plasma IL-6 compared to mice treated with GFP-S ssRNA (TLR7 [1]; [3]): 96%+/−1%
loxoribine-mediated cytokine induction relative to GFP-S ssRNA and PBS treated mice (TLR7 [1]; pre-treatment 2 h prior to 1 mg Lox): significantly reduced
inhibition of Lox-mediated IFN-α induction (TLR7 [2]): 87+/−11%
inhibition of Lox-mediated IL-6 induction (TLR7 [2]): 69+/−1%
